Measurements: publication PMC8707700, “Ru(III) Complexes with Lonidamine-Modified Ligands” (International Journal of Molecular Sciences, 2021)

What was measured:
[1] = target: T1, isolated rat TrxR1 (rat liver TrxR) (Rattus norvegicus, UniProt O89049); test: Inhibition of purified TrxR (DTNB reduction); format: biochemical; settings: isolated enzyme, 75 min 37 °C preincubation; mean ± SD, three measurements
T1 construct: Commercially available rat liver TrxR; purchased Sigma Aldrich; host or cells: rat liver
T1 sequence (O89049 1-499): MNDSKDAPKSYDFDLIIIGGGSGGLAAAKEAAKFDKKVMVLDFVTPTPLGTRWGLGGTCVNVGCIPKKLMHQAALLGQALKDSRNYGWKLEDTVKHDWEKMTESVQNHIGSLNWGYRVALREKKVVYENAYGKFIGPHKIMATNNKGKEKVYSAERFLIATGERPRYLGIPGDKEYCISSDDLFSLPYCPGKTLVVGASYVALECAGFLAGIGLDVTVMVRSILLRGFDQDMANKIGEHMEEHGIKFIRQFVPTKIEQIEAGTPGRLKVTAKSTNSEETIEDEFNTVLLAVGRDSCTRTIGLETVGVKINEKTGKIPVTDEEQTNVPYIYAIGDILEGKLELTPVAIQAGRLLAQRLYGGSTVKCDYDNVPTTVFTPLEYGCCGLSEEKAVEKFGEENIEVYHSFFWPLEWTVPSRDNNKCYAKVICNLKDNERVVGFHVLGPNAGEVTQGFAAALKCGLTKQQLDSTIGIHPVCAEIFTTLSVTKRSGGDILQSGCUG
Method: The activity of TrxR [40, 54] was determined in a microplate format. Commercially available rat liver TrxR (Sigma Aldrich, St. Louis, MO, USA) was diluted with distilled water to 3.5 Unit/mL. In total, 25 μL aliquots of this solution were mixed with 25 μL of a potassium phosphate buffer, pH 7.0, with or without tested compounds. Fifty µL of 0.5% v/v dimethyl formamide in buffer was served as a blank. […] For this purpose, 25 µL of the highest test concentration of each compound and 25 µL of phosphate buffer (no enzyme) were mixed. Samples were incubated with moderate shaking for 75 min at 37 °C in a 96-well plate. To each well, 225 μL of the reaction mixture (500 μL of potassium phosphate buffer, pH 7.0, 80 μL of 100 mM ethylenediaminetetraacetic acid (EDTA), 20 μL of 0.2% bovine serum albumin, 100 μL of 20 mM NADPH (nicotinamide adenine dinucleotide phosphate), and 300 μL of water) was added; the reaction was initiated by the addition of 25 μL of 20 mM DTNB (5,5′-dithiobis(2-nitrobenzoic acid)) solution in ethanol. The formation of 5-TNB was monitored at 405 nm 10 times at 35 s intervals by a VICTOR X4 Plate Reader (Perkin Elmer). […] IC50 values were calculated as the concentration of the compound that decreased the enzymatic activity of the control (no compound) by 50%. Values are mean ± SD of the three independent measurements.

A549 = test: Antiproliferative activity, MTT assay; format: cell-based, human; settings: MTT, 72 h exposure; mean ± SD; read-out: IC50, µM A549
Method: (§1) The antiproliferative activity of new ligands and complexes was determined against human cell lines, including colon adenocarcinoma SW480, breast adenocarcinoma MCF-7, lung adenocarcinoma A549, neuroblastoma SHSY5Y, and non-tumourigenic HaCaT (Table 4). In general, complexes were more cytotoxic compared to ligands, lonidamine, and, in some cases, cisplatin. […] We chose this compound and the synthetically accessible complex 16 for mechanistic studies.
(§2) The antiproliferative activity was studied by MTT assays as published previously. For flow cytometry studies, cells were plated into 6-well plates (Eppendorf, Germany; 4 × 10^5 cells in 2 mL of DMEM) and incubated for 24 h. Solutions of complexes in DMSO were prepared immediately prior to the day of the experiments. Cells were treated with either 20 µM of cisplatin, 50 µM of 16, or 20 µM of 20. Concentrations corresponded to two-fold IC50 values based on MTT assays. Cells were incubated for 24 h, pooled, washed with cold PBS, and resuspended in DMEM. Aliquots of cells were processed as recommended in the Muse Annexin V&Dead Cell Kit or Muse Caspase-3/7 Kit (Luminex). Measurements were carried out on a Muse Cell Analyser, Luminex corp., TX, USA.

MCF-7 = test: Antiproliferative activity, MTT assay; format: cell-based, human; settings: MTT, 72 h exposure; mean ± SD; read-out: IC50, µM MCF-7
Method: as §1, §2

SH-SY5Y = test: Antiproliferative activity, MTT assay; format: cell-based, human; settings: 72 h exposure, mean ± SD
Method: as §1, §2

SW480 = test: Antiproliferative activity, MTT assay; format: cell-based, human; settings: MTT, 72 h exposure; mean ± SD; read-out: IC50, µM SW480
Method: as §1, §2

HCT116 cells = test: Annexin V/7-AAD flow cytometry (Muse Annexin V & Dead Cell Kit); format: cell-based; settings: HCT116, 24 h; for Annexin V-positive cells: 2xIC50 (50 µM of 16, 20 µM of 20); for early apoptosis (Annexin V/7-AAD) / late apoptosis (Annexin V/7-AAD) / live cells (Annexin V/7-AAD) / necrosis (Annexin V/7-AAD): 2xIC50, one representative experiment
Method: Mechanisms of cell death, that is, Annexin V/7-AAD reactivity and caspase 3/7 activation, were determined for 16 and 20 in HCT116 cells using the Muse® Annexin V & Dead Cell Kit (Luminex corp., Austin, TX, USA) and flow cytometry. Cells were incubated with 16, 20, or cisplatin (reference drug) for 24 h at concentrations corresponding to 2xIC50 values (obtained in MTT assays; Table 4). The percentages of Annexin V-positive cells in response to 16 and 20 were higher than cisplatin (Figure 8). Complex 20 with the C12 linker induced Annexin V positivity slightly more efficiently than 16 with the C3 linker (27.4 ± 2.1% vs. 19.7 ± 0.6%).
as §2

Na[trans-Ru(DMSO)(C21H19Cl2N5O)Cl4] [Compound 16]
IC50 [1]: 20.4 ± 0.1 µM
IC50 (A549): > 30 µM
IC50 (MCF-7): 23 ± 0.5 µM
IC50 (SH-SY5Y): 26.1 ± 5.5 µM
IC50 (SW480): 25 ± 7.1 µM
Annexin V-positive cells (HCT116 cells): 19.7 ± 0.6%
early apoptosis (Annexin V/7-AAD) (HCT116 cells): 3%
late apoptosis (Annexin V/7-AAD) (HCT116 cells): 20%
live cells (Annexin V/7-AAD) (HCT116 cells): 78%
necrosis (Annexin V/7-AAD) (HCT116 cells): 0%

Na[trans-Ru(DMSO)(C30H37Cl2N5O)Cl4] [Compound 20]
IC50 [1]: 8.5 ± 0.3 µM
IC50 (A549): 8.1 ± 1.1 µM
IC50 (MCF-7): 9.2 ± 0.1 µM
IC50 (SH-SY5Y): 6.1 ± 0.3 µM
IC50 (SW480): 9.6 ± 1.3 µM
Annexin V-positive cells (HCT116 cells): 27.4 ± 2.1%
early apoptosis (Annexin V/7-AAD) (HCT116 cells): 5%
late apoptosis (Annexin V/7-AAD) (HCT116 cells): 26%
live cells (Annexin V/7-AAD) (HCT116 cells): 69%
necrosis (Annexin V/7-AAD) (HCT116 cells): 0%
